{"source": "patent US11345912B2", "about": "“Directed evolution of multivalent glycopeptides that tightly bind to target proteins” (Brandeis University, priority 2013, dated 2022)", "tested_on": "2G12", "experiment": "Binding curve and KD determination of 2G12-glycopeptide interaction (radiolabeled glycopeptide, protein G magnetic bead capture, scintillation counting)", "conditions": "Table 6 mutational analysis, radioactive bead binding assay", "protocol": "The resulting mRNAs were purified by denaturing PAGE or MEGAclear kit (Ambion), and 1 μM RNA was used in PURE system translation (reaction volume of translation varied). Typically, 25 μL of translated reaction was diluted with 100 μL of binding buffer (50 mM Tris-HCl, pH 7.8, 300 mM NaCl, 5 mM β-mercaptoethanol) and 25 μL of Ni-NTA agarose suspension (Qiagen), and tumbled at room temperature for 1 h. The resins were transferred to 0.22 μm spin-filter rinsing with 100 μL of bind buffer, and washed with 3×200 μL of bind buffer and 2×200 μL of wash buffer (50 mM Tris-HCl, pH 7.8, 5 mM β-mercaptoethanol). The bound peptides were eluted with 2×25 μL of 0.1% TFA. The eluted peptides were analyzed by MALDI-TOF MS, using α-Cyano-4-hydroxycinnamic acid matrix (Sigma), with or without desalting with ZipTip C18 resin (Millipore). For calibration of MALDI-TOF-MS, at least two of the following standards, bovine insulin, E. coli thioredoxin and/or horse apomyoglobin were used. To quantitate peptide yields, the radioactivities were measured by liquid scintillation counting. For the click reaction, the translated and purified peptides were mixed with 0.1% (v/v) Triton X-100, and then dialyzed against H2O containing 0.1% (v/v) Triton X-100 using Slide-A-Lyzer MINI Dialysis Devices, 3.5K MWCO (Thermo Scientific) overnight to desalt. After dialysis, the peptides were divided into two portions: one was glycosylated via the click reaction, while the other was saved as a non-glycosylated peptide control. […] The glycosylated peptide (<4 pmol) was incubated with 100 nM 2G12 in selection buffer (40 μL) at room temp. The solution was then tumbled 30 min with 0.12 mg of equilibrated Dynabeads Protein G to capture 2G12-glycopeptide complex. Beads were then washed with 3×40 μL of selection buffer and resuspended in 10 μL of selection buffer. The resuspended beads were heated at 70° C. for 30 min to denature 2G12 and elute glycopeptides, chilled on ice for 5 min, and tumbled at room temperature for 10 min. The magnetically isolated supernatant was recovered and the beads were rinsed with 10 μL of selection buffer.\nThen, the solution was added to 0.12 mg of pre-equilibrated Dynabeads Protein G and tumbled at room temperature for 30 min. The supernatant was removed and the beads were washed with 3×40 μL of selection buffer. The radioactivities of the supernatant and wash solutions were measured by liquid scintillation counting as unbound fractions. […] The beads were resuspended in 40 μL of selection buffer, heated at 70° C. for 30 min to elute the bound glycopeptides, chilled on ice for 5 min, and tumbled at room temperature for 10 min. The supernatant was removed, and the beads were washed with 40 μL of selection buffer and resuspended in 40 μL of selection buffer. The radioactivities of these solutions and suspensions were measured by liquid scintillation counting separately and the values were combined as apparent bound fractions. […] All experiments were done at least in triplicate. KDs were calculated as described in the footnote of Table 4 (below).", "data": [{"smiles": "CC[C@H](C)[C@H](NC(=O)[C@H](CCCNC(=N)N)NC(=O)[C@H](CCCNC(=N)N)NC(=O)CNC(=O)[C@H](CC(=O)O)NC(=O)[C@H](CC(N)=O)NC(=O)[C@H](CC(C)C)NC(=O)[C@@H](NC(=O)[C@H](CCc1cn(C2CCC(OC3O[C@H](CO[C@H]4O[C@H](CO[C@H]5O[C@H](CO)[C@@H](O)[C@H](O)[C@@H]5O[C@H]5O[C@H](CO)[C@@H](O)[C@H](O)[C@@H]5O)[C@@H](O)[C@H](O[C@H]5O[C@H](CO)[C@@H](O)[C@H](O)[C@@H]5O[C@H]5O[C@H](CO)[C@@H](O)[C@H](O)[C@@H]5O)[C@@H]4O)[C@@H](O)[C@H](O[C@H]4O[C@H](CO)[C@@H](O)[C@H](O)[C@@H]4O[C@H]4O[C@H](CO)[C@@H](O)[C@H](O)[C@@H]4O[C@H]4O[C@H](CO)[C@@H](O)[C@H](O)[C@@H]4O)[C@@H]3O)CC2)nn1)NC=O)C(C)C)C(=O)N[C@H](C(=O)N[C@@H](CCC(N)=O)C(=O)N[C@@H](CCc1cn(C2CCC(OC3O[C@H](CO[C@H]4O[C@H](CO[C@H]5O[C@H](CO)[C@@H](O)[C@H](O)[C@@H]5O[C@H]5O[C@H](CO)[C@@H](O)[C@H](O)[C@@H]5O)[C@@H](O)[C@H](O[C@H]5O[C@H](CO)[C@@H](O)[C@H](O)[C@@H]5O[C@H]5O[C@H](CO)[C@@H](O)[C@H](O)[C@@H]5O)[C@@H]4O)[C@@H](O)[C@H](O[C@H]4O[C@H](CO)[C@@H](O)[C@H](O)[C@@H]4O[C@H]4O[C@H](CO)[C@@H](O)[C@H](O)[C@@H]4O[C@H]4O[C@H](CO)[C@@H](O)[C@H](O)[C@@H]4O)[C@@H]3O)CC2)nn1)C(=O)N[C@@H](CO)C(=O)N[C@@H](CS)C(=O)N[C@@H](CCC(=O)O)C(=O)N[C@@H](CC(C)C)C(=O)N1CCC[C@H]1C(=O)N[C@@H](CCc1cn(C2CCC(OC3O[C@H](CO[C@H]4O[C@H](CO[C@H]5O[C@H](CO)[C@@H](O)[C@H](O)[C@@H]5O[C@H]5O[C@H](CO)[C@@H](O)[C@H](O)[C@@H]5O)[C@@H](O)[C@H](O[C@H]5O[C@H](CO)[C@@H](O)[C@H](O)[C@@H]5O[C@H]5O[C@H](CO)[C@@H](O)[C@H](O)[C@@H]5O)[C@@H]4O)[C@@H](O)[C@H](O[C@H]4O[C@H](CO)[C@@H](O)[C@H](O)[C@@H]4O[C@H]4O[C@H](CO)[C@@H](O)[C@H](O)[C@@H]4O[C@H]4O[C@H](CO)[C@@H](O)[C@H](O)[C@@H]4O)[C@@H]3O)CC2)nn1)C(=O)N[C@H](C(=O)N[C@@H](CCCNC(=N)N)C(=O)N[C@@H](CCCNC(=N)N)C(=O)N[C@@H](CO)C(=O)NCC(=O)N[C@@H](CO)C(=O)NCC(=O)N[C@@H](CO)C(=O)N[C@@H](CC(C)C)C(=O)NCC(=O)N[C@@H](Cc1c[nH]cn1)C(=O)N[C@@H](Cc1c[nH]cn1)C(=O)N[C@@H](Cc1c[nH]cn1)C(=O)N[C@@H](Cc1c[nH]cn1)C(=O)N[C@@H](Cc1c[nH]cn1)C(=O)N[C@@H](Cc1c[nH]cn1)C(=O)N[C@@H](CCCNC(=N)N)C(=O)N[C@@H](CC(=O)O)C(=O)N[C@@H](Cc1ccc(O)cc1)C(=O)N[C@@H](CCCCN)C(=O)N[C@@H](CC(=O)O)C(=O)N[C@@H](CC(=O)O)C(=O)N[C@@H](CC(=O)O)C(=O)N[C@@H](CC(=O)O)C(=O)N[C@@H](CCCCN)C(=O)O)C(C)C)C(C)C", "note": "(some centres unmarked) [Clone 10F5-Δ11, XVLNDGRRIVQXSCELPXVRRS]", "values": [{"measurement": "Fmax [%]", "result": 17, "unit": "%"}, {"measurement": "Kd", "setting": "ribosomally translated", "result": "> 200", "unit": "nM"}]}]}
